Earlier results in US20260041141A1, “AEROSOL-GENERATING ARTICLE WITH AN ISOLATED AVERSIVE COMPONENT” (PHILIP MORRIS PRODUCTS S.A., priority 2022, published 2026).
Counter-ions that a name gives are not always drawn.

Settings: reciprocal of the dilution that still has a bitter taste; quinine hydrochloride reference set at 200,000

Molecule | Bitterness value
COC1=C[C@@H](C)[C@@H]2C[C@H]3OC(=O)C[C@H]4C(C)=C(OC)C(=O)[C@H]([C@@]2(C)C1=O)[C@@]34C [Quassin] | 13,000,000
C[C@@]12C[C@@H](c3ccoc3)OC(=O)[C@@H]1CC[C@]1(C)[C@H]2[C@@H]2C=C[C@@]1(O)C(=O)O2 [Columbin] | 60,000,000
Amarogentin | 58,000,000
C=C[C@H]1C[N@@]2CC[C@H]1C[C@H]2[C@H](O)c1ccnc2ccc(OC)cc12 [Quinine hydrochloride] | 200,000
CC1=C[C@H]2[C@H]3[C@H](C(C)=C4[C@H]5OC(=O)[C@@H](C)[C@@H]5CC[C@](C)(O)[C@@H]43)[C@@]13[C@@H]2[C@@](C)(O)CC[C@H]1[C@H](C)C(=O)O[C@@H]13 [Absinthin] | 3,000,000
